Assay results: patent US20240067632A1, “WEE1 Degrading Compounds and Uses Thereof” (Bristol-Myers Squibb Company, priority 2022, published 2024)
Like-named read-outs stand apart in the source and are kept apart here.

What was measured:
WEE1 = target: T1, WEE1 (Homo sapiens, UniProt P30291+Q96SW2); assay: WEE1-ePL degradation assay (LentiX-WEE1-ePL-GSPT1-ND cells, InCELL Hunter luminescence, 4 h); type: cell-based; details: 293T-LentiX WEE1-ePL cells; for DC50: read-out: 293T-LentiX WEE1-ePL Degradation 4 hr (EC50)
T1 construct: C-terminal ePL-tagged (DiscoverX, Fremont, CA) full-length WEE1 expression construct; expressed in transfected cells; host or cells: LentiX-HEK293T (Invitrogen), lentiviral transduction; co-expressing GSPT1-GN (G576N, lacking the first 158 amino acids)
How it was run: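 First, compounds were pre-plated as 10-point, 3-fold dilutions (top 1 uM or 10 uM) with DMSO control; next, WEE1-ePL-expressing HEK293T cells were added and held 4 h at 37 °C; finally, InCELL Hunter reagent was applied for 30 min before luminescence reading. A 4PL fit gave EC50 and Ymin.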

MKN45 cells = assay: MKN45 cell proliferation assay (Cell-Titer-Glo, 120 h); type: cell-based; details: for EC50: Homo sapiens, MKN-45, 120 h, Cell-Titer-Glo, read-out: MKN45 Cell Prolif. 120 hr (EC50); for MKN45 Cell Prolif. 120 hr (Ymin-Obs): minimal percent of DMSO control observed in the concentrations tested
How it was run: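 Growth inhibition was read as blank-corrected Cell-Titer-Glo luminescence expressed as percent DMSO control after 120 h at 37 C, 400 cells/well. Compounds tested in triplicate as 10-point half-log series from 1 or 10 uM, 0.1% DMSO; four-parameter fit gave EC50, and lowest observed percent control was reported as Ymin-obs.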

[1] = lower limit of the fit (0 = luciferase inhibitor, Ymax = DMSO control)

293T-LentiX WEE1-ePL Degradation 4 hr (Ymin) (WEE1; [1])	DC50 (WEE1) [nM]	EC50 (MKN45 cells; growth inhibition) [nM]	293T-LentiX WEE1-ePL Degradation 4 hr (Ymin) (WEE1; lower limit of the fit (Ymin=0 luciferase inhibitor, Ymax DMSO control))	EC50 (MKN45 cells) [nM]	SMILES	MKN45 Cell Prolif. 120 hr (Ymin-Obs) (MKN45 cells)
45	16.5	70.2			C#Cc1ncc2cc(CN3CC[C@H](Oc4ccc5c(c4)CN(C4CCC(=O)NC4=O)C5=O)C3)ccc2n1 (stereo partly drawn) [3-(5-{[(3S)-1-[(2-ethynylquinazolin-6-yl)methyl]pyrrolidin-3-yl]oxy}-1-oxo-2,3-dihydro-1H-isoindol-2-yl)piperidine-2,6-dione]	28.856
29.02	1.45	2.29			O=C1CC[C@H](N2Cc3cc(O[C@H]4CCN(Cc5cc(F)c6nc(C7CCOCC7)ccc6c5)C4)ccc3C2=O)C(=O)N1 [(3S)-3-(5-{[(3S)-1-{[8-fluoro-2-(oxan-4-yl)quinolin-6-yl]methyl}pyrrolidin-3-yl]oxy}-1-oxo-2,3-dihydro-1H-isoindol-2-yl)piperidine-2,6-dione]	8.43
67.53	122	960			O=C1CCC(N2Cc3cc(O[C@H]4CCN(Cc5cc6ncccc6cn5)C4)ccc3C2=O)C(=O)N1 (stereo partly drawn) [3-(5-{[(3S)-1-[(1,6-naphthyridin-7-yl)methyl]pyrrolidin-3-yl]oxy}-1-oxo-2,3-dihydro-1H-isoindol-2-yl)piperidine-2,6-dione]	84.48
52	40.5	> 10000			Cn1cc2cc(CN3CC[C@H](Oc4ccc5c(c4)CN(C4CCC(=O)NC4=O)C5=O)C3)ccc2n1 (stereo partly drawn) [3-(5-{[(3S)-1-[(2-methyl-2H-indazol-5-yl)methyl]pyrrolidin-3-yl]oxy}-1-oxo-2,3-dihydro-1H-isoindol-2-yl)piperidine-2,6-dione]	81.985
33.245	35.4	1120			O=C1CCC(N2Cc3cc(O[C@H]4CCN(Cc5cnc6c(c5)CCCO6)C4)ccc3C2=O)C(=O)N1 (stereo partly drawn) [3-(1-oxo-5-{[(3S)-1-({2H,3H,4H-pyrano[2,3-b]pyridin-6-yl}methyl)pyrrolidin-3-yl]oxy}-2,3-dihydro-1H-isoindol-2-yl)piperidine-2,6-dione]	23.52
38	3.19	3.83			O=C1CCC(N2Cc3cc(O[C@H]4CCN(Cc5ccc6nc(N7C[C@@H]8C9CCC(O9)[C@@H]8C7)ccc6c5)C4)ccc3C2=O)C(=O)N1 (some centres unmarked)	10.93
28	2	0.738			O=C1CCC(N2Cc3cc(O[C@H]4CCN(Cc5cc(-c6cccc(C7=CCOCC7)c6)ccn5)C4)ccc3C2=O)C(=O)N1 (stereo partly drawn) [3-(5-{[(3S)-1-({4-[3-(3,6-dihydro-2H-pyran-4-yl)phenyl]pyridin-2-yl}methyl)pyrrolidin-3-yl]oxy}-1-oxo-2,3-dihydro-1H-isoindol-2-yl)piperidine-2,6-dione]	7.53
33	2.17	8.4			O=C1CCC(N2Cc3cc(O[C@H]4CCN(Cc5cncc(-c6ccccc6)c5)C4)ccc3C2=O)C(=O)N1 (stereo partly drawn) [3-(1-oxo-5-{[(3S)-1-[(5-phenylpyridin-3-yl)methyl]pyrrolidin-3-yl]oxy}-2,3-dihydro-1H-isoindol-2-yl)piperidine-2,6-dione]	7.52
26.94	20.8	92.3			O=C1CCC(N2Cc3cc(O[C@H]4CCN(Cc5cnc6cnccc6c5)C4)ccc3C2=O)C(=O)N1 (stereo partly drawn) [3-(5-{[(3S)-1-[(1,7-naphthyridin-3-yl)methyl]pyrrolidin-3-yl]oxy}-1-oxo-2,3-dihydro-1H-isoindol-2-yl)piperidine-2,6-dione]	9.14
30	27.3	252			O=C1CCC(N2Cc3cc(O[C@H]4CCN(Cc5cnc6c(c5)CCOC6)C4)ccc3C2=O)C(=O)N1 (stereo partly drawn) [3-(1-oxo-5-{[(3S)-1-({5H,6H,8H-pyrano[3,4-b]pyridin-3-yl}methyl)pyrrolidin-3-yl]oxy}-2,3-dihydro-1H-isoindol-2-yl)piperidine-2,6-dione]	8.89

Further lines, the compound ahead of its results:

SMILES	293T-LentiX WEE1-ePL Degradation 4 hr (Ymin) (WEE1; [1])	DC50 (WEE1) [nM]	EC50 (MKN45 cells; growth inhibition) [nM]	293T-LentiX WEE1-ePL Degradation 4 hr (Ymin) (WEE1; lower limit of the fit (Ymin=0 luciferase inhibitor, Ymax DMSO control))	EC50 (MKN45 cells) [nM]	MKN45 Cell Prolif. 120 hr (Ymin-Obs) (MKN45 cells)
CNc1ccc2cc(CN3CC[C@H](Oc4ccc5c(c4)CN(C4CCC(=O)NC4=O)C5=O)C3)ncc2c1 (stereo partly drawn) [3-(5-{[(3S)-1-{[7-(methylamino)isoquinolin-3-yl]methyl}pyrrolidin-3-yl]oxy}-1-oxo-2,3-dihydro-1H-isoindol-2-yl)piperidine-2,6-dione]	32	9.01	42.1			12.46
CO[C@H]1CCN(c2ccc3cc(CN4CC[C@H](Oc5ccc6c(c5)CN(C5CCC(=O)NC5=O)C6=O)C4)ccc3n2)C1 (stereo partly drawn) [3-(5-{[(3S)-1-({2-[(3S)-3-methoxypyrrolidin-1-yl]quinolin-6-yl}methyl)pyrrolidin-3-yl]oxy}-1-oxo-2,3-dihydro-1H-isoindol-2-yl)piperidine-2,6-dione]	34	3.58	1.58			9.12
CC(=O)N1CCC(c2ccc3cc(CN4CC[C@H](Oc5ccc6c(c5)CN([C@H]5CCC(=O)NC5=O)C6=O)C4)ccc3n2)CC1 [(3S)-3-(5-{[(3S)-1-{[2-(1-acetylpiperidin-4-yl)quinolin-6-yl]methyl}pyrrolidin-3-yl]oxy}-1-oxo-2,3-dihydro-1H-isoindol-2-yl)piperidine-2,6-dione]		10.1		36.62	11.8	10.38
Cc1ccnc(CN2CC[C@H](Oc3ccc4c(c3)CN(C3CCC(=O)NC3=O)C4=O)C2)c1 (stereo partly drawn) [3-(5-{[(3S)-1-[(4-methylpyridin-2-yl)methyl]pyrrolidin-3-yl]oxy}-1-oxo-2,3-dihydro-1H-isoindol-2-yl)piperidine-2,6-dione]	38.55	65.4	1330			42.67
CC1(c2ccc3cc(CN4CC[C@H](Oc5ccc6c(c5)CN(C5CCC(=O)NC5=O)C6=O)C4)ccc3n2)CCOCC1 (stereo partly drawn) [3-(5-{[(3S)-1-{[2-(4-methyloxan-4-yl)quinolin-6-yl]methyl}pyrrolidin-3-yl]oxy}-1-oxo-2,3-dihydro-1H-isoindol-2-yl)piperidine-2,6-dione]	32	1.99	4.03			10.29
CO[C@H]1C[C@H](c2ccc3cc(CN4CC[C@H](Oc5ccc6c(c5)CN(C5CCC(=O)NC5=O)C6=O)C4)ccc3n2)C1 (stereo partly drawn) [drawing 578, 3-(1-oxo-5-{[(3S)-1-({2-[(1r,3r)-3-methoxycyclobutyl]quinolin-6-yl}methyl)pyrrolidin-3-yl]oxy}-2,3-dihydro-1H-isoindol-2-yl)piperidine-2,6-dione]	27.12	3.61	3.3			7.412
COCc1ccc2cc(CN3CC[C@H](Oc4ccc5c(c4)CN(C4CCC(=O)NC4=O)C5=O)C3)ccc2n1 (stereo partly drawn) [3-(5-{[(3S)-1-{[2-(methoxymethyl)quinolin-6-yl]methyl}pyrrolidin-3-yl]oxy}-1-oxo-2,3-dihydro-1H-isoindol-2-yl)piperidine-2,6-dione]	30.5	5.55	20.5			8.38
CO[C@@H]1CN(Cc2ccc3nc(C4CCOCC4)ccc3c2)C[C@H]1Oc1ccc2c(c1)CN(C1CCC(=O)NC1=O)C2=O (stereo partly drawn) [3-(5-{[(3R,4R)-4-methoxy-1-{[2-(oxan-4-yl)quinolin-6-yl]methyl}pyrrolidin-3-yl]oxy}-1-oxo-2,3-dihydro-1H-isoindol-2-yl)piperidine-2,6-dione]	37.67	11.7	16.9			22.78
O=C1CCC(N2Cc3cc(O[C@H]4CCN(Cc5ccc6nc([C@H]7CCC[C@@H](O)C7)ccc6c5)C4)ccc3C2=O)C(=O)N1 (stereo partly drawn) [3-(5-{[(3S)-1-({2-[(1S,3R)-3-hydroxycyclohexyl]quinolin-6-yl}methyl)pyrrolidin-3-yl]oxy}-1-oxo-2,3-dihydro-1H-isoindol-2-yl)piperidine-2,6-dione]	32	9.66	11.1			7.93
O=C1CCC(N2Cc3cc(O[C@H]4CCN(Cc5ccc6nc(N7C[C@H]8COC[C@H]8C7)ccc6c5)C4)ccc3C2=O)C(=O)N1 (stereo partly drawn) [3-(5-{[(3S)-1-({2-[(3aR,6aS)-hexahydro-1H-furo[3,4-c]pyrrol-5-yl]quinolin-6-yl}methyl)pyrrolidin-3-yl]oxy}-1-oxo-2,3-dihydro-1H-isoindol-2-yl)piperidine-2,6-dione]	39	3.61	6.4			14.73
